In the supplement of paper PMC11061612:

Key:
[1] = test system: A3-KAW (B-Cell Non-Hodgkin's Lymphoma); assay: Bliss excess, mean over the matrix (fraction); higher = more synergy
Procedure, shortened: (§1)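 After 24 hours at 37°C and 5% CO2 in 1536-well plates, cells in DMEM/F12 or RPMI plus 10% FBS received two-drug dose matrices for 72 hours. Viability came from CellTiter-Glo 2.0 luminescence and was scaled as inhibition, anchored at 0 by vehicle wells and at 1 by blank wells. Combination Emax is taken as the second-highest inhibition in the matrix, and Bliss excess as the observed combination effect less EA + EB − EA·EB, with EA and EB the single-agent effects.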

[2] = test system: A498 (Kidney Carcinoma); assay: as above
Procedure, shortened: as §1

[3] = test system: A549 (Lung Adenocarcinoma); assay: as above
Procedure, shortened: as §1

[4] = test system: BICR22 (Oral Cavity Carcinoma); assay: as above
Procedure, shortened: as §1

[5] = test system: CAL-29 (Bladder Carcinoma); assay: as above
Procedure, shortened: as §1

[6] = test system: CAS-1 (Glioblastoma); assay: as above
Procedure, shortened: as §1

[7] = test system: COLO-320-HSR (Colorectal Carcinoma); assay: as above
Procedure, shortened: as §1

[8] = test system: COR-L311 (Small Cell Lung Carcinoma); assay: as above
Procedure, shortened: as §1

[9] = test system: NCI-H1581 (Non-Small Cell Lung Carcinoma); assay: as above
Procedure, shortened: as §1

[10] = test system: NCI-H1650 (Lung Adenocarcinoma); assay: as above
Procedure, shortened: as §1

[11] = test system: NCI-H1666 (Lung Adenocarcinoma); assay: as above
Procedure, shortened: as §1

[12] = test system: NY (Osteosarcoma); assay: as above
Procedure, shortened: as §1

[13] = test system: PA-1 (Ovarian Carcinoma); assay: as above
Procedure, shortened: as §1

[14] = test system: SK-MES-1 (Squamous Cell Lung Carcinoma); assay: as above
Procedure, shortened: as §1

[15] = test system: SK-MG-1 (Low Grade Glioma); assay: as above
Procedure, shortened: as §1

[16] = test system: TT (Thyroid Gland Carcinoma); assay: as above
Procedure, shortened: as §1

[17] = test system: U-2-OS (Osteosarcoma); assay: as above
Procedure, shortened: as §1

[18] = test system: FU97 (Gastric Carcinoma); assay: combination Emax (second highest fraction inhibited in the dose matrix, 72 h); higher = more inhibition; extreme values may be limits of the assay
Procedure, shortened: as §1

[19] = test system: HCC1954 (Breast Carcinoma); assay: as above
Procedure, shortened: as §1

[20] = test system: TT2609-C02 (Thyroid Gland Carcinoma); assay: as above
Procedure, shortened: as §1
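For Bliss excess, mean over the matrix in this document: after 72 h of two-drug dosing.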

Row | Structure (SMILES) | Bliss excess [1] | Bliss excess [2] | Bliss excess [3] | Bliss excess [4] | Bliss excess [5] | Bliss excess [6] | Bliss excess [7] | Bliss excess [8] | Bliss excess [9] | Bliss excess [10] | Bliss excess [11] | Bliss excess [12] | Bliss excess [13] | Bliss excess [14] | Bliss excess [15] | Bliss excess [16] | Bliss excess [17] | combination Emax [18] | combination Emax [19] | combination Emax [20]
1 | CC(=O)c1c(C)c2cnc(Nc3ccc(N4CCNCC4)cn3)nc2n(C2CCCC2)c1=O [Palbociclib] + Cn1cnc2c(F)c(Nc3ccc(Br)cc3Cl)c(C(=O)NOCCO)cc21 [Selumetinib] (first compound max 10 µM, 7x7, partner max 10 µM) | 0.182 | -0.0228 | -0.0413 | 0.102 | 0.0021 | -0.018 | -0.0316 | -0.0334 | 0.0466 | -0.0775 | -0.0183 | -0.0227 | -0.0312 | -0.0088 | 0.0489 | 0.0418 | -0.0134 | 0.377 | 0.178 | 0.527
2 | COc1cccc(OCCCN)c1-c1cc(Nc2cnc(C#N)cn2)n[nH]1 [Prexasertib] + C=CCn1c(=O)c2cnc(Nc3ccc(N4CCN(C)CC4)cc3)nc2n1-c1cccc(C(C)(C)O)n1 [AZD1775] (first compound max 1 µM, partner max 1 µM) | 0.0424 | -0.0716 | 0.139 | 0.0175 | -0.0079 | -0.0363 | 0.136 | 0.0559 | 0.155 | 0.0005 | -0.0629 | -0.008 | 0.03 | -0.0425 | 0.0712 | -0.103 | 0.0506 | 0.367 | 0.963 | 0.449
3 | COc1cccc(OCCCN)c1-c1cc(Nc2cnc(C#N)cn2)n[nH]1 [Prexasertib] + CCc1c2c(nc3ccc(O)cc13)-c1cc3c(c(=O)n1C2)COC(=O)[C@]3(O)CC [SN-38] (first compound max 1 µM, 7x7, partner max 0.3 µM) | 0.0247 | -0.105 | -0.0361 | -0.0684 | 0.002 | 0.0383 | 0.115 | -0.0058 | 0.196 | -0.0339 | -0.0269 | -0.0647 | -0.0364 | -0.0507 | 0.0719 | -0.0758 | -0.0551 | 0.423 | 0.929 | 0.95
4 | COc1cccc(OCCCN)c1-c1cc(Nc2cnc(C#N)cn2)n[nH]1 [Prexasertib] + CN(C)CCCOc1ccc(-c2ccc3ncc4c(c3c2)n(C2CCOCC2)c(=O)n4C)cn1 [AZD0156] (first compound max 1 µM, 7x7, partner max 1 µM) | 0.0134 | 0.034 | -0.0276 | -0.0429 | -0.0479 | -0.0336 | 0.0111 | -0.0532 | 0.0112 | -0.0451 | -0.0291 | 0.0007 | 0.0031 | -0.0471 | -0.0321 | -0.004 | 0.0176 | 0.386 | 0.862 | 0.335
5 | COc1cccc(OCCCN)c1-c1cc(Nc2cnc(C#N)cn2)n[nH]1 [Prexasertib] + C[C@@H]1COCCN1C2=NC(=NC(=C2)C3(CC3)[S@](=N)(=O)C)C4=C5C=CNC5=NC=C4 [AZD6738] (first compound max 1 µM, 7x7, partner max 10 µM) | 0.0104 | -0.0514 | 0.0241 | -0.0153 | -0.0331 | -0.0095 | -0.0406 | -0.0363 | 0.0436 | 0.0094 | 0.0338 | -0.0031 | -0.0438 | -0.0205 | -0.0012 | 0.0244 | -0.0426 | 0.308 | 0.878 | 0.263
6 | COc1cccc(OCCCN)c1-c1cc(Nc2cnc(C#N)cn2)n[nH]1 [Prexasertib] + Cc1cc2ncnn2cc1Nc1ncc2c(n1)n(C1CCOCC1)c(=O)n2C [AZD7648] (first compound max 1 µM, 7x7, partner max 10 µM) | 0.0126 | -0.0206 | 0.0532 | 0.0594 | -0.0754 | -0.0053 | -0.0037 | -0.0289 | 0.022 | 0.0011 | -0.0176 | -0.0328 | 0.0205 | -0.0411 | -0.0257 | -0.0144 | -0.0223 | 0.367 | 0.843 | 0.276
7 | COc1cccc(OCCCN)c1-c1cc(Nc2cnc(C#N)cn2)n[nH]1 [Prexasertib] + O=C(c1cc(Cc2n[nH]c(=O)c3ccccc23)ccc1F)N1CCN(C(=O)C2CC2)CC1 [Olaparib] (first compound max 1 µM, 7x7, partner max 10 µM) | -0.0146 | -0.0622 | -0.0109 | -0.0685 | -0.185 | -0.0979 | -0.131 | -0.101 | 0.0257 | -0.0152 | -0.0096 | -0.0128 | 0.0083 | -0.0174 | 0.0026 | -0.141 | -0.0478 | 0.299 | 0.866 | 0.329
